# According to ChEMBL document CHEMBL3885881, “DrugMatrix”:
# Organism: Rattus norvegicus
# Assay: DrugMatrix - Regimen: Daily Repeat
# Type: toxicity, organism-based, Sprague-Dawley
# Design: regimen Daily Repeat, gender Male, age 6-8 weeks
# Settings: in vivo, po, route oral GAVAGE, vehicle .5 % CMC; for ABSOLUTE BASOPHIL / ABSOLUTE EOSINOPHIL / ABSOLUTE LYMPHOCYTE / ABSOLUTE MONOCYTE / ABSOLUTE SEGMENTED NEUTROPHIL / BASOPHIL / EOSINOPHIL / ERYTHROCYTE COUNT / HEMATOCRIT / HEMOGLOBIN / LEUKOCYTE COUNT / LYMPHOCYTE / MEAN CORPUSCULAR HEMOGLOBIN / MEAN CORPUSCULAR HEMOGLOBIN CONCENTRATION / MEAN CORPUSCULAR VOLUME / MONOCYTE / NEUTROPHIL / NUCLEATED RED BLOOD CELLS / PLATELET COUNT: tissue Blood; for ALANINE AMINOTRANSFERASE / ALBUMIN / ALKALINE PHOSPHATASE / ASPARTATE AMINOTRANSFERASE / BLOOD UREA NITROGEN / CARBON DIOXIDE / CHLORIDE / CHOLESTEROL / CREATINE PHOSPHOKINASE / CREATININE / GLUCOSE / LACTATE DEHYDROGENASE / LIPASE / PHOSPHORUS / POTASSIUM / SODIUM / TOTAL BILIRUBIN / TOTAL PROTEIN / URIC ACID: tissue Plasma
# [1] = 0 mg/kg, 72 h, dose level Control, time 3 day
# [2] = 0 mg/kg, 120 h, dose level Control, time 5 day
# [3] = 88 mg/kg, 72 h, dose level Low, time 3 day
smiles,measurement,setting,value
CC(C)[C@H](N)C(=O)OCCOCn1cnc2c(=O)[nH]c(N)nc21 [VALACYCLOVIR],ABSOLUTE BASOPHIL,[1],0 CELLS/uL
same,ABSOLUTE EOSINOPHIL,[1],171.33 CELLS/uL
same,ABSOLUTE LYMPHOCYTE,[1],13776.5 CELLS/uL
same,ABSOLUTE MONOCYTE,[1],180.83 CELLS/uL
same,ABSOLUTE SEGMENTED NEUTROPHIL,[1],1121.33 CELLS/uL
same,BASOPHIL,[1],0%
same,EOSINOPHIL,[1],1%
same,ERYTHROCYTE COUNT,[1],5.56 x10E6/uL
same,HEMATOCRIT,[1],34.75%
same,HEMOGLOBIN,[1],13.68 G/DL
same,LEUKOCYTE COUNT,[1],15.25 x10E3/uL
same,LYMPHOCYTE,[1],90.17%
same,MEAN CORPUSCULAR HEMOGLOBIN,[1],24.6 pg
same,MEAN CORPUSCULAR HEMOGLOBIN CONCENTRATION,[1],39.4 G/DL
same,MEAN CORPUSCULAR VOLUME,[1],62.48 fL
same,MONOCYTE,[1],1.17%
same,NEUTROPHIL,[1],7.67%
same,NUCLEATED RED BLOOD CELLS,[1],0 /100WBC
same,PLATELET COUNT,[1],1342 x10E3/uL
same,ALANINE AMINOTRANSFERASE,[1],49.67 u/L
same,ALBUMIN,[1],4.15 G/DL
same,ALKALINE PHOSPHATASE,[1],346.83 u/L
same,ASPARTATE AMINOTRANSFERASE,[1],108.17 u/L
same,BLOOD UREA NITROGEN,[1],17.33 mg/dL
same,CARBON DIOXIDE,[1],25 mmol/L
same,CHLORIDE,[1],100.83 MEQ/L
same,CHOLESTEROL,[1],66.83 mg/dL
same,CREATINE PHOSPHOKINASE,[1],788 u/L
same,CREATININE,[1],0.18 mg/dL
same,GLUCOSE,[1],151.67 mg/dL
same,LACTATE DEHYDROGENASE,[1],982.5 u/L
same,LIPASE,[1],10.33 u/L
same,PHOSPHORUS,[1],11.23 mg/dL
same,POTASSIUM,[1],6.37 MEQ/L
same,SODIUM,[1],141.02 MEQ/L
same,TOTAL BILIRUBIN,[1],0.18 mg/dL
same,TOTAL PROTEIN,[1],5.9 G/DL
same,URIC ACID,[1],1.8 mg/dL
same,ABSOLUTE BASOPHIL,[2],0 CELLS/uL
same,ABSOLUTE EOSINOPHIL,[2],69 CELLS/uL
same,ABSOLUTE LYMPHOCYTE,[2],13632.83 CELLS/uL
same,ABSOLUTE MONOCYTE,[2],139.83 CELLS/uL
same,ABSOLUTE SEGMENTED NEUTROPHIL,[2],1225 CELLS/uL
same,BASOPHIL,[2],0%
same,EOSINOPHIL,[2],0.33%
same,ERYTHROCYTE COUNT,[2],5.52 x10E6/uL
same,HEMATOCRIT,[2],33.98%
same,HEMOGLOBIN,[2],13.22 G/DL
same,LEUKOCYTE COUNT,[2],15.07 x10E3/uL
same,LYMPHOCYTE,[2],90.83%
same,MEAN CORPUSCULAR HEMOGLOBIN,[2],23.95 pg
same,MEAN CORPUSCULAR HEMOGLOBIN CONCENTRATION,[2],38.9 G/DL
same,MEAN CORPUSCULAR VOLUME,[2],61.53 fL
same,MONOCYTE,[2],0.83%
same,NEUTROPHIL,[2],8%
same,NUCLEATED RED BLOOD CELLS,[2],0 /100WBC
same,PLATELET COUNT,[2],1196 x10E3/uL
same,ALANINE AMINOTRANSFERASE,[2],49.17 u/L
same,ALBUMIN,[2],4.2 G/DL
same,ALKALINE PHOSPHATASE,[2],352.33 u/L
same,ASPARTATE AMINOTRANSFERASE,[2],89.67 u/L
same,BLOOD UREA NITROGEN,[2],18 mg/dL
same,CARBON DIOXIDE,[2],27.67 mmol/L
same,CHLORIDE,[2],101 MEQ/L
same,CHOLESTEROL,[2],72.83 mg/dL
same,CREATINE PHOSPHOKINASE,[2],417.5 u/L
same,CREATININE,[2],0.18 mg/dL
same,GLUCOSE,[2],150.5 mg/dL
same,LACTATE DEHYDROGENASE,[2],517.33 u/L
same,LIPASE,[2],9 u/L
same,PHOSPHORUS,[2],11.87 mg/dL
same,POTASSIUM,[2],6.57 MEQ/L
same,SODIUM,[2],143.62 MEQ/L
same,TOTAL BILIRUBIN,[2],0.2 mg/dL
same,TOTAL PROTEIN,[2],6.08 G/DL
same,URIC ACID,[2],1.45 mg/dL
same,ABSOLUTE BASOPHIL,[3],0 CELLS/uL
same,ABSOLUTE EOSINOPHIL,[3],194 CELLS/uL
same,ABSOLUTE LYMPHOCYTE,[3],11636 CELLS/uL
same,ABSOLUTE MONOCYTE,[3],141 CELLS/uL
same,ABSOLUTE SEGMENTED NEUTROPHIL,[3],1129 CELLS/uL
same,BASOPHIL,[3],0%
same,EOSINOPHIL,[3],1.33%
same,ERYTHROCYTE COUNT,[3],5.5 x10E6/uL
same,HEMATOCRIT,[3],34.9%
same,HEMOGLOBIN,[3],13.63 G/DL
same,LEUKOCYTE COUNT,[3],13.1 x10E3/uL
same,LYMPHOCYTE,[3],89.33%
same,MEAN CORPUSCULAR HEMOGLOBIN,[3],24.77 pg
same,MEAN CORPUSCULAR HEMOGLOBIN CONCENTRATION,[3],39.07 G/DL
same,MEAN CORPUSCULAR VOLUME,[3],63.5 fL
same,MONOCYTE,[3],1%
same,NEUTROPHIL,[3],8.33%
same,NUCLEATED RED BLOOD CELLS,[3],0 /100WBC
same,PLATELET COUNT,[3],1139.67 x10E3/uL
